The target of one test is T1, FLIPW-TCTY (Escherichia coli, UniProt P0A881).
T1 construct: gene trpR
Briefly: FRET ratio (528/485 nm, eCFP excitation 433 nm) titration of purified sensor with L-tryptophan in 20 mM MOPS, pH 7.0, fitted to a single-site binding isotherm. The note with it: n = 3. How it is done:
(§1) The eCFP emission used for the ratio calculation was determined at 485 nm. Protein was diluted to give Venus readouts of 20,000–30,000 at a manual gain of between 70–75. By using the change in FRET ratio upon binding of ligand, affinity constants (K d) were determined by fitting the titration curves to a single-site binding isotherm: [drawing 1] with [L], ligand concentration; n, number of equal binding sites; R, ratio; R apo, ratio in the absence of ligand; and R sat, ratio at saturation with ligand. Three independent protein preparations were analyzed and each protein preparation was analyzed in triplicate.

The subject of test [1] is LAT1-like amino acid exchanger. The test is described as follows: Velocity of intracellular FLIPW-CTYT FRET response by single-cell imaging versus external L-tryptophan in COS-7 cells perfused with Tyrode's buffer, histidine as counterexchange substrate, Michaelis-Menten fit. Format: cell-based. To be noted: read-out: affinity of the cells for combined uptake and metabolism of tryptophan. How it is done: Upon perfusion with 100 μM L-tryptophan, the FRET ratio increased instantaneously, corresponding to rising levels of cytosolic tryptophan. […] This way, cells could be repeatedly loaded with tryptophan and unloaded using histidine (Figure 4A). […] Na^+ independence and BCH sensitivity are characteristic of the transport properties of LAT1- and LAT2-like amino acid counterexchangers. […] LAT2 is expressed in the proximal tubule of the kidney, so it might be expressed in COS-7 cells. In addition, LAT1 is expressed in various human tumor cell lines and, consequently, is likely to be present in COS-7 cells as well.
According to the FRET theory, an increase in Venus signal is accompanied by a decrease in eCFP signal. Ratio defined as fluorescence intensity quotient obtained with emission filters 535/40 nm over 480/30 nm. […] Error bars indicate standard deviation. […]
Ratio imaging was performed on an inverted fluorescence microscope (DM IRE2, Leica; http://www.leica.com) with a Quant EM digital camera (Photometrics; http://www.photomet.com) and 20× oil immersion, 63× water immersion lenses (HC PL APO 20×/0.7 or HCX PL APO, Leica). Dual emission intensity ratios were simultaneously recorded using a DualView with an OI-5-EM filter set (eCFP 480/30; eYFP 535/40; Optical Insights; http://www.optical-insights.com) and Slidebook 4.2 (Intelligent Imaging Innovations; http://www.intelligent-imaging.com/). […]

The next test has as its target T2, LAT1 (Homo sapiens, UniProt Q01650).
T2 construct: gene SLC7A5; endogenous transporter of KB cells expressing cytosolic FLIPW-CTYT sensor
The test is described as follows: Velocity of intracellular FLIPW-CTYT FRET response by single-cell imaging versus external L-tryptophan in human KB cells perfused with Tyrode's buffer, histidine as counterexchange substrate, Michaelis-Menten fit. The class given is cell-based. The note with it: read-out: affinity of KB cells for combined tryptophan uptake and metabolism under perfusion conditions. The protocol: KB cells originate from a human oral squamous cell carcinoma and express only LAT1 for uptake of neutral amino acids as shown by reverse-transcriptase (RT)-PCR [37] and RNA interference (RNAi).
According to the FRET theory, an increase in Venus signal is accompanied by a decrease in eCFP signal. Ratio defined as fluorescence intensity quotient obtained with emission filters 535/40 nm over 480/30 nm. (B) Effect of 5 mM BCH inhibitor on the uptake rate of 100 μM L-tryptophan. Error bars indicate standard deviation. […] Error bars indicate standard deviation. […]
Ratio imaging was performed on an inverted fluorescence microscope (DM IRE2, Leica; http://www.leica.com) with a Quant EM digital camera (Photometrics; http://www.photomet.com) and 20× oil immersion, 63× water immersion lenses (HC PL APO 20×/0.7 or HCX PL APO, Leica). Dual emission intensity ratios were simultaneously recorded using a DualView with an OI-5-EM filter set (eCFP 480/30; eYFP 535/40; Optical Insights; http://www.optical-insights.com) and Slidebook 4.2 (Intelligent Imaging Innovations; http://www.intelligent-imaging.com/). […] Fluorescence intensities for eCFP and Venus were typically in the range of 6,000–8,000 and 12,000–16,000, respectively. […]

Test [2] relates to COS-7 cells. Briefly: Perfusion ratio imaging of tryptophan uptake and exchange in COS-7 cells expressing FLIPW-CTYT (LAT1-like exchanger). The class given is cell-based. The note with it: for Effect on uptake rate of 100 μM L-tryptophan: COS-7, inhibitors at 5 mM; for Tryptophan export from the cytosol promoted by extracellular amino acid: COS-7 loaded with tryptophan, amino acid at 100 μM; for Tryptophan export induced by extracellular tryptophan degradation product: tryptophan-preloaded COS-7 cells, DL-HK 200–1,000 μM. The protocol: (§2) Cells were cultured at 37 °C and 5% CO2.
Ratio imaging was performed on an inverted fluorescence microscope (DM IRE2, Leica; http://www.leica.com) with a Quant EM digital camera (Photometrics; http://www.photomet.com) and 20× oil immersion, 63× water immersion lenses (HC PL APO 20×/0.7 or HCX PL APO, Leica). […] A Lambda DG4 (Sutter Instruments; http://www.sutter.com) provided excitation light. Images were acquired within the linear detection range of the camera and exposure times varied between 50 and 200 ms, depending on the expression level, with software binning between 2 and 3. Fluorescence intensities for eCFP and Venus were typically in the range of 6,000–8,000 and 12,000–16,000, respectively. Typical background values were around 1,000. Cells were perfused with Tyrode's buffer supplemented with ligands at flow rates of 1.0 ml/min in a vacuum chamber (Vacu-Cell VC-MPC-TW, C&L Instruments; http://www.fluorescence.com/) with a total volume of 0.1 ml. Buffers were exchanged using an eight-way automated ValveBank (AutoMate; http://www.autom8.com/). Inhibitors BCH and α-(methylamino)isobutyric acid (MeIAB) were used at 5 mM concentrations. For determination of the substrate specificity of tryptophan exchange, all 20 amino acids were tested at 100 μM concentrations.

A further test concerns KB cells. The test is described as follows: Perfusion ratio imaging of LAT1-mediated tryptophan uptake and exchange in KB cells expressing FLIPW-CTYT. The class given is cell-based, human. To be noted: for Export of intracellular tryptophan upon perfusion (FRET ratio decrease): 100 μM L-His, 200 μM DL-K, 200 μM DL-HK, 1,000 μM HAA. The protocol: as §2
Ratio imaging was performed on an inverted fluorescence microscope (DM IRE2, Leica; http://www.leica.com) with a Quant EM digital camera (Photometrics; http://www.photomet.com) and 20× oil immersion, 63× water immersion lenses (HC PL APO 20×/0.7 or HCX PL APO, Leica). Dual emission intensity ratios were simultaneously recorded using a DualView with an OI-5-EM filter set (eCFP 480/30; eYFP 535/40; Optical Insights; http://www.optical-insights.com) and Slidebook 4.2 (Intelligent Imaging Innovations; http://www.intelligent-imaging.com/). A Lambda DG4 (Sutter Instruments; http://www.sutter.com) provided excitation light. Images were acquired within the linear detection range of the camera and exposure times varied between 50 and 200 ms, depending on the expression level, with software binning between 2 and 3. Fluorescence intensities for eCFP and Venus were typically in the range of 6,000–8,000 and 12,000–16,000, respectively. Typical background values were around 1,000. Cells were perfused with Tyrode's buffer supplemented with ligands at flow rates of 1.0 ml/min in a vacuum chamber (Vacu-Cell VC-MPC-TW, C&L Instruments; http://www.fluorescence.com/) with a total volume of 0.1 ml. Buffers were exchanged using an eight-way automated ValveBank (AutoMate; http://www.autom8.com/). Inhibitors BCH and α-(methylamino)isobutyric acid (MeIAB) were used at 5 mM concentrations. For determination of the substrate specificity of tryptophan exchange, all 20 amino acids were tested at 100 μM concentrations. Analyses were repeated at least three times with similar results.

The target in another test is T3, FLIPW-CTYT (Escherichia coli, UniProt P0A881).
T3 construct: made in house; host or cells: E. coli BL21(DE3)gold
The test is described as follows: In vitro FRET ligand titration of FLIPW-CTYT. The class given is binding, E. coli. The note with it: for FLIPW-CTYT FRET response or interference with tryptophan binding: in vitro, unpublished data; for Kd: 20 mM MOPS pH 7.0. The protocol:
as §1

In a further test the target is T4, FLIPW-CTY (Escherichia coli, UniProt P0A881).
T4 construct: made in house; host or cells: E. coli BL21(DE3)gold
Briefly: In vitro FRET ligand titration of FLIPW-CTY. To be noted: for Kd: 20 mM MOPS pH 7.0, read-out: Affinity of FLIPW-CTY for tryptophan substrates. The class given is binding, E. coli. The protocol: as §1

The test system of test [3] is COS-7 cells. The note with it: read-out: Apparent affinity constant KM for combined transport and metabolism; COS-7, 96-well microplate, Tyrode's buffer.
Procedure: COS-7 cells were grown in Dulbecco's modified Eagle's medium (high glucose; DMEM, Gibco; http://www.invitrogen.com) with 10% fetal calf serum and 50 units (U)/ml penicillin and 50 μg/ml streptomycin (Gibco). […] Cells were cultured at 37 °C and 5% CO2. For imaging, cells were cultured in 8-well LabTekII German tissue culture glass slides (Nalge Nunc International; http://www.nalgenunc.com) and transiently transfected at 50%–70% confluence using Lipofectamine 2000 Reagent (Invitrogen) in Opti-MEM I reduced serum medium (Gibco). After transfection, cells were cultured for 16 h in Opti-MEM I followed by 3 h in growth medium prior to imaging.
Adherent COS-7 cells in 96-well microplates were washed once with 100 μl Tyrode's buffer (119 mM NaCl, 2.5 mM KCl, 2 mM CaCl2, 2 mM MgCl2, 25 mM HEPES, 30 mM glucose, pH 7.3–7.4). The initial FRET ratio was measured by recording the eCFP and Venus emissions at 485 nm and 528 nm, respectively, after excitation of eCFP at 433 nm in a Safire monochromator microplate reader (Tecan). Standard deviation of the initial ratios was less than 10%. After addition of 100 μl tryptophan in Tyrode's buffer the FRET ratio was recorded with 2-min intervals for up to 2 h. Uptake rates were determined from linear parts in the initial FRET change and fitted with the nonlinear regression program Origin 6.1 (OriginLab; http://www.originlab.com).
The next test concerns human LAT1. The arrangement: method as in PMID 11557028. To be noted: LAT1 expressed in oocytes, static conditions; cited from earlier work.

T2 sequence (Q01650 whole entry): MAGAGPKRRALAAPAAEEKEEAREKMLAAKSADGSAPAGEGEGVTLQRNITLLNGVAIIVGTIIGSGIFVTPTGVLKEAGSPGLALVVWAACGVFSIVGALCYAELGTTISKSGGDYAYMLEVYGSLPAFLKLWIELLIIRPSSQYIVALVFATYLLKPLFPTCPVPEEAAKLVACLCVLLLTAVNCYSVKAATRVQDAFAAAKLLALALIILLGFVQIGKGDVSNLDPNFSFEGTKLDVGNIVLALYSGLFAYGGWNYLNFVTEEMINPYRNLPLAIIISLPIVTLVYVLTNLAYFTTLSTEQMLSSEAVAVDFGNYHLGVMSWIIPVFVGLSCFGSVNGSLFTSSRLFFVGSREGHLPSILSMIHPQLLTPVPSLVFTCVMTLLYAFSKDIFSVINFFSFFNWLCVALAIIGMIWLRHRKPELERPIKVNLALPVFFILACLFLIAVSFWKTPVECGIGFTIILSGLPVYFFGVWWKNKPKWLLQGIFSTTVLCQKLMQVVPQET
T2 sequence (P08195 103-630 partner): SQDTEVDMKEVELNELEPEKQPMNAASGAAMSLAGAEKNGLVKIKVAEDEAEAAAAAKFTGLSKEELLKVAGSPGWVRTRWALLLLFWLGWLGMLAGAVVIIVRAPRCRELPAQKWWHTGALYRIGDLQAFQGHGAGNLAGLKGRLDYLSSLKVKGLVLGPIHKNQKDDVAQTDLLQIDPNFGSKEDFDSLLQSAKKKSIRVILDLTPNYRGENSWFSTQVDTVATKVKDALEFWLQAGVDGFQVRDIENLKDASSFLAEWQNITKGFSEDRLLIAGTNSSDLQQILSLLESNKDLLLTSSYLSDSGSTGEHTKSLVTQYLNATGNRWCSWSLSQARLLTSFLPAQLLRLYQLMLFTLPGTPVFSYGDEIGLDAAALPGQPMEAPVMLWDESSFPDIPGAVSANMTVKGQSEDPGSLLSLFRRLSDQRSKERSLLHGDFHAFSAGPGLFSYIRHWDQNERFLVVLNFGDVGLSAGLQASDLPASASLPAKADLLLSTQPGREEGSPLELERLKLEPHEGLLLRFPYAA

For `N[C@@H](Cc1c[nH]c2ccccc12)C(=O)O` [L-tryptophan], the Kd on FLIPW-TCTY was 20 µM. Further, the Km in test [1] stood at 2.6 µM; at LAT1, 5.1 µM.
For the molecule `CNC(C)(C)C(=O)O` [N-(methylamino)isobutyric acid], the “Effect on uptake rate of 100 μM L-tryptophan” value with COS-7 cells [2] is on record as “did not decrease uptake rates”.
`CSCC[C@H](N)C(=O)O` [methionine]: in the test with COS-7 cells [2], the “Tryptophan export from the cytosol promoted by extracellular amino acid” value (“Tryptophan export … by extracellular amino acid” below) is reported as “able to promote tryptophan export”.
Same read-out and setting: the entry for `N[C@@H](Cc1ccc(O)cc1)C(=O)O` [tyrosine] is “able to promote tryptophan export”.
As for `N[C@@H](Cc1c[nH]cn1)C(=O)O` [L-histidine], the “Tryptophan export … by extracellular amino acid” value in the test with COS-7 cells [2] is recorded as “export of tryptophan from the cytosol”. In addition, the “Export of intracellular tryptophan upon perfusion (FRET ratio decrease)” value (“Export … (FRET ratio decrease)” below) in the test on KB cells is reported as “decreased”.
Consider `Nc1c(O)cccc1C(=O)CC(N)C(=O)O` (centres unmarked) [HK, 3-hydroxy-kynurenine], for which the “FLIPW-CTYT FRET response or interference with tryptophan binding” value (from here on “FLIPW-CTYT FRET response or interference”) on FLIPW-CTYT is given as “did not result in a FLIPW-CTYT FRET response”. Also, in the test on COS-7 cells [2], the “Tryptophan export induced by extracellular tryptophan degradation product” value (“Tryptophan export induced” for short) is recorded as “tryptophan export”. For the same molecule, the “Export … (FRET ratio decrease)” value in the test with KB cells is “exported”.
As to `Nc1c(O)cccc1C(=O)O` [HAA, hydroxy-anthranilic acid], the “FLIPW-CTYT FRET response or interference” value on FLIPW-CTYT was “did not result in a FLIPW-CTYT FRET response”. Besides, the “Tryptophan export induced” value in the test with COS-7 cells [2] was “did not result in tryptophan export”. Besides, the “Export … (FRET ratio decrease)” value with KB cells is on record as “not”.
In the case of `Nc1ccccc1C(=O)CC(N)C(=O)O` (centres unmarked) [K, kynurenine], the “FLIPW-CTYT FRET response or interference” value at FLIPW-CTYT was “did not result in a FLIPW-CTYT FRET response”. Further, the “Tryptophan export induced” value with COS-7 cells [2] is given as “tryptophan export”. The “Export … (FRET ratio decrease)” value with KB cells was “exported”.
With `N[C@@H](Cc1c[nH]c2ccc(O)cc12)C(=O)O` [l-5-hydroxy-tryptophan, 5-hydroxy-L-tryptophan], the Kd on FLIPW-CTY worked out at 6000 ± 800 µM.
Turning to `CC(C)C[C@H](N)C(=O)O` [leucine], the “Tryptophan export … by extracellular amino acid” value with COS-7 cells [2] was “able to promote tryptophan export”.
`N[C@H](Cc1c[nH]c2ccccc12)C(=O)O` [d-tryptophan, D-tryptophan]: the Kd at FLIPW-CTY amounted to 3100 ± 300 µM; at FLIPW-CTYT, 1280 ± 100 µM. The “Concentration for decrease of FRET ratio relative to L-tryptophan” value at FLIPW-CTY (titration of FLIPW-CTY, higher concentrations than L-tryptophan) is listed as “about 5 fold”.
As to `CC[C@H](C)[C@H](N)C(=O)O` [isoleucine], in the test with COS-7 cells [2], the “Tryptophan export … by extracellular amino acid” value was “able to promote tryptophan export”.
`Cc1ccc2[nH]cc(C[C@H](N)C(=O)O)c2c1` [l-5-methyl-tryptophan, 5-methyl-L-tryptophan]: the Kd on FLIPW-CTY came out at 60 ± 10 µM; at FLIPW-CTYT, 25 ± 2 µM.
Turning to `N[C@@H](Cc1ccccc1)C(=O)O` [phenylalanine], in the test on COS-7 cells [2], the “Tryptophan export … by extracellular amino acid” value is given as “able to promote tryptophan export”.
Take `N[C@@H](Cc1c[nH]c2ccccc12)C(=O)O` [l-tryptophan, L-tryptophan]: the Kd at FLIPW-CTY amounted to 220 ± 20 µM; on FLIPW-CTYT it was 100 ± 14 µM. Further, in the test on COS-7 cells [2] (COS-7, perfusion), the “Affinity of the cells for combined uptake and metabolism of tryptophan” value is 2.6 ± 1.1 µM. Besides, the “Affinity for combined tryptophan uptake and metabolism” value with KB cells (perfusion conditions) was 5.1 ± 1.0 µM. The Km with COS-7 cells [3] is 0.88 ± 0.27 µM. In addition, the “Reported affinity of human LAT1 for tryptophan uptake” value in the test with human LAT1 was 21 µM.
Take `NC1(C(=O)O)CC2CCC1C2` (centres unmarked) [BCH, 2-aminobicyclo-(2,2,1)-heptane-2-carboxylic acid]: the “Effect on uptake rate of 100 μM L-tryptophan” value in the test on COS-7 cells [2] is on record as “decreased the uptake of tryptophan”. In the test on KB cells (5 mM BCH), the “Effect on LAT1-mediated uptake of 100 μM L-tryptophan” value is listed as “almost completely inhibited”.
On to `CC(C)[C@H](N)C(=O)O` [valine], for which the “Tryptophan export … by extracellular amino acid” value with COS-7 cells [2] is listed as “able to promote tryptophan export”.

(Values after article PMC1988858, “Nanosensor Detection of an Immunoregulatory Tryptophan Influx/Kynurenine Efflux Cycle” (PLoS Biology, 2007).)
